Read-outs that look alike come from different tables or passages of the source.
Legend:
[1] = Non-GLP 4-week repeated high-dose toxicology study; format: in vivo; details: nicotine 1 mg/kg/day s.c. infusion for 28d; rats
Procedure: 8D1-IgG4 was dosed i.v. once weekly at 200 mg/kg.
Assessment of toxicity was based on mortality, clinical observations, and body weight during the course of the 28-day study, and at the end of study organ weights, gross anatomic pathology, hematology, serum clinical chemistry, and coagulation was performed. Histopathology of selected tissues (heart, liver, lung, kidney, spleen, skeletal muscle, brain, colon, stomach, ovary, and testis) is pending. Tissues were fixed immediately in formalin, and processed for embedding in paraffin, staining with H&E, and review by a veterinary pathologist.

[2] = rats; cited from earlier work
[3] = mice; cited from earlier work
[4] = cited from earlier work

CN1CCC[C@H]1c1cccnc1 [nicotine]
hematology finding in animals that received nicotine [1]: slight polychromasia | LD50 [2]: 50 mg/kg | LD50 [3]: 3 mg/kg | lethal dose (may be as high as) ([4]; human adult): 1.0 to 7.1 mg/kg | lethal dose (may be as high as) ([4]; in vivo): ≥ 500 mg

Source: patent US11440970B2, “Nicotine-binding antibodies” (priority 2017, dated 2022)
